Test results from patent publication US9266904B2, “6-bridged heteroaryldihydropyrimidines for the treatment and prophylaxis of hepatitis B virus infection” (priority 2013, dated 2016).

These molecules were tested on HBV replication in HepG2.2.15 cells (assay: Anti-HBV activity in vitro in HepG2.2.15 cells (extracellular HBV DNA by qPCR)). Details: Anti-HBV activity in HepG2.2.15 cells; read-out: EC50.
Assay type: cell-based
Excerpt: HepG2.2.15 and HepDE19 are stably-transfected cell lines containing the HBV genome. Both cell lines are derived from the hepatoblastoma cell line Hep G2 (American Type Culture Collection, ATCC® HB-8065™) by the published procedures described in references: M A Selles et al. Proc. Natl. Acad. Sci. USA 1987, 84, 1005-1009 and H Guo et al. Journal of Virology 2007, 81, 12472-12484, respectively. Both cell lines were maintained in Dulbecco's modified Eagle's medium (DMEM)-F12 medium supplemented with 10% fetal bovine serum, 100 U/mL penicillin, 100 μg/mL streptomycin, and 0.5 mg/mL of G418.
While HepG2.2.15 cells constitutively support HBV replication and production of virus particles, HepDE19 cells are inducible by tetracycline. Addition of 1 μg/mL tetracycline in culture medium suppresses HBV replication in HepDE19 cells, whereas switching to tetracycline-free medium resumes this process.
HepG2.2.15 cells were seeded into 96-well plates (3×10^4 cells in 100 μL media per well) and incubated overnight at 37° C. The test compounds were serially half-log diluted in DMSO, then diluted 100 times in culture media. 100 μL diluted compounds were added into the plates to reach 0.5% final concentration of DMSO in every well. Five days after compound treatment, culture supernatant was collected for further analysis.
For quantitative PCR detection of extracellular HBV DNA, 100 μL culture supernatant was collected and processed in MagNA Pure 96 Nucleic Acid Purification System (Roche Applied Science) for viral DNA extraction. The extracted samples were subjected to HBV DNA quantification by qPCR. The effective compound concentration at which HBV replication is inhibited by 50% (EC50) was determined.
The Examples were tested in the above assays as described herein and found to have EC50<1 μM in HepG2.2.15 assay.

Q: Which EC50 does the source give for `COC(=O)C1=C(CN2C3COCC2CC(O)C3)NC(c2nccs2)=N[C@H]1c1ccc(F)cc1Cl` (stereo partly drawn) [Example 9, (R)-4-(2-Chloro-4-fluoro-phenyl)-6-(7-hydroxy-3-oxa-9-aza-bicyclo[3.3.1]non-9-ylmethyl)-2-thiazol-2-yl-1,4-dihydro-pyrimidine-5-carboxylic acid methyl ester] here?
A: 14 nM

Same assay, conditions: Hepatitis B virus, HepG2.2.15, Anti-HBV activity in HepG2.2.15 cells; read-out: EC50

Q: Which EC50 does the source give for `COC(=O)C1=C(CN2C3COCC2C(O)C3)NC(c2nccs2)=N[C@H]1c1ccc(F)cc1Cl` (mixture of isomers) [Example 49, Methyl (4R)-4-(2-chloro-4-fluoro-phenyl)-6-[(6-hydroxy-3-oxa-8-azabicyclo[3.2.1]octan-8-yl)methyl]-2-thiazol-2-yl-1,4-dihydropyrimidine-5-carboxylate] here?
A: 17.2 nM

Q: How did the EC50 turn out when `COC(=O)C1=C(CN2C3COCC2CC(C(=O)OC)C3)NC(c2nccs2)=N[C@H]1c1ccc(F)cc1Br` (stereo partly drawn) [Example 4, 9-[(R)-6-(2-Bromo-4-fluoro-phenyl)-5-methoxycarbonyl-2-thiazol-2-yl-3,6-dihydro-pyrimidin-4-ylmethyl]-3-oxa-9-aza-bicyclo[3.3.1]nonane-7-carboxylic acid methyl ester] was run?
A: 39 nM

Q: With `CNS(=O)(=O)N1CC2COCC(C1)N2CC1=C(C(=O)OC)[C@H](c2ccc(F)cc2Cl)N=C(c2nccs2)N1` [Example 16, (R)-4-(2-Chloro-4-fluoro-phenyl)-6-(7-methylsulfamoyl-3-oxa-7,9-diaza-bicyclo[3.3.1]non-9-ylmethyl)-2-thiazol-2-yl-1,4-dihydro-pyrimidine-5-carboxylic acid methyl ester] as the molecule, how does the EC50 read?
A: 15 nM

Q: Which EC50 does the source give for `CCOC(=O)C(C)(C)N1CC2COCC(C1)N2CC1=C(C(=O)OC)[C@H](c2ccc(F)cc2Cl)N=C(c2nccs2)N1` [Example 20, (R)-4-(2-Chloro-4-fluoro-phenyl)-6-[7-(1-ethoxycarbonyl-1-methyl-ethyl)-3-oxa-7,9-diaza-bicyclo[3.3.1]non-9-ylmethyl]-2-thiazol-2-yl-1,4-dihydro-pyrimidine-5-carboxylic acid methyl ester] here?
A: 35 nM

Q: Which EC50 does the source give for `COC(=O)C1=C(CN2C3COCC2CC(CC(=O)O)C3)NC(c2nccs2)=NC1c1ccc(F)c(F)c1` (stereo not shown) [Example 27, 6-(7-Carboxymethyl-3-oxa-9-aza-bicyclo[3.3.1]non-9-ylmethyl)-4-(3,4-difluoro-phenyl)-2-thiazol-2-yl-1,4-dihydro-pyrimidine-5-carboxylic acid methyl ester] here?
A: 254 nM

Q: `COC(=O)C1=C(CN2C3COCC2CC(C(O)C(=O)OC)C3)NC(c2nccs2)=N[C@H]1c1ccc(F)cc1Cl` (stereo partly drawn) [Example 30, (R)-4-(2-Chloro-4-fluoro-phenyl)-6-[7-(hydroxy-methoxycarbonyl-methyl)-3-oxa-9-aza-bicyclo[3.3.1]non-9-ylmethyl]-2-thiazol-2-yl-1,4-dihydro-pyrimidine-5-carboxylic acid methyl ester] was tested. Which EC50 did it give?
A: 11 nM

Q: With `COC(=O)C1=C(CN2C3COCC2c2c(C)n[nH]c2C3)NC(c2nccs2)=N[C@H]1c1ccc(F)cc1Cl` (stereo partly drawn) [Example 32, (R)-4-(2-Chloro-4-fluoro-phenyl)-6-(3-methyl-10-oxa-4,5,12-triaza-tricyclo[6.3.1.0*2,6*]dodeca-2(6),3-dien-12-ylmethyl)-2-thiazol-2-yl-1,4-dihydro-pyrimidine-5-carboxylic acid methyl ester] as the molecule, how does the EC50 read?
A: 32 nM

Q: With `COC(=O)C1=C(CN2[C@@H]3COC[C@H]2CC(OCC(=O)O)C3)NC(c2nccs2)=N[C@H]1c1ccc(F)c(F)c1` (stereo partly drawn) [Example 47, 2-[[(1R,5S)-9-[[(4S)-4-(3,4-difluorophenyl)-5-methoxycarbonyl-2-thiazol-2-yl-1,4-dihydropyrimidin-6-yl]methyl]-3-oxa-9-azabicyclo[3.3.1]nonan-7-yl]oxy]acetic acid] as the molecule, how does the EC50 read?
A: 295 nM

Q: With `COC(=O)C1=C(CN2C3COCC2C(F)C3)NC(c2nccs2)=N[C@H]1c1ccc(F)cc1Cl` (stereo partly drawn) [Example 51, Methyl (4R)-4-(2-chloro-4-fluoro-phenyl)-6-[(6-fluoro-3-oxa-8-azabicyclo[3.2.1]octan-8-yl)methyl]-2-thiazol-2-yl-1,4-dihydropyrimidine-5-carboxylate] as the molecule, how does the EC50 read?
A: 14.9 nM

Q: With `COC(=O)C1=C(CN2C3COCC2C(F)c2oncc23)NC(c2nccs2)=N[C@H]1c1ccc(F)cc1Cl` (stereo partly drawn) [Example 106, (4R)-4-(2-Chloro-4-fluoro-phenyl)-6-(7-fluoro-5,10-dioxa-4,12-diaza-tricyclo[6.3.1.0*2,6*]dodeca-2(6),3-dien-12-ylmethyl)-2-thiazol-2-yl-1,4-dihydropyrimidine-5-carrboxylic acid methyl ester] as the molecule, how does the EC50 read?
A: 8.5 nM

Q: How did the EC50 turn out when `COC(=O)C1=C(CN2[C@H]3C[C@H](CC(=O)O)C[C@@H]2C(F)(F)C3)NC(c2nccs2)=N[C@H]1c1ccc(F)c(F)c1C` [Example 112, 2-[(1S,3S,5R)-8-[[(4S)-4-(3,4-difluoro-2-methyl-phenyl)-5-methoxycarbonyl-2-thiazol-2-yl-1,4-dihydropyrimidin-6-yl]methyl]-6,6-difluoro-8-azabicyclo[3.2.1]octan-3-yl]acetic acid] was run?
A: 35.8 nM

Q: Which EC50 does the source give for `COC(=O)C1=C(CN2C3CC(F)(F)C2C[C@](O)(CC(=O)O)C3)NC(c2nccs2)=N[C@H]1c1ccc(F)c(F)c1C` (stereo partly drawn) [Example 119, 2-[(3S)-8-[[(4S)-4-(3,4-difluoro-2-methyl-phenyl)-5-methoxycarbonyl-2-thiazol-2-yl-1,4-dihydropyrimidin-6-yl]methyl]-6,6-difluoro-3-hydroxy-8-azabicyclo[3.2.1]octan-3-yl]acetic acid] here?
A: 21.3 nM

Q: Which EC50 does the source give for `COC(=O)C1=C(CN2C3CC(F)(F)C2C[C@](O)(CC(=O)O)C3)NC(c2nccs2)=N[C@H]1c1cccc(F)c1Cl` (stereo partly drawn) [Example 121, 2-[(3S)-8-[[(4R)-4-(2-chloro-3-fluoro-phenyl)-5-methoxycarbonyl-2-thiazol-2-yl-1,4-dihydropyrimidin-6-yl]methyl]-6,6-difluoro-3-hydroxy-8-azabicyclo[3.2.1]octan-3-yl]acetic acid] here?
A: 33 nM

Q: With `COC(=O)C1=C(CN2C3CNC(=O)C2COC3)NC(c2nccs2)=N[C@H]1c1ccc(F)cc1Cl` (stereo partly drawn) [Example 133, Methyl (4R)-4-(2-chloro-4-fluoro-phenyl)-6-[(6-oxo-3-oxa-7,9-diazabicyclo[3.3.1]nonan-9-yl)methyl]-2-thiazol-2-yl-1,4-dihydropyrimidine-5-carboxylate] as the molecule, how does the EC50 read?
A: 34 nM

Q: Which EC50 does the source give for `CCOC(=O)CC1(O)CC2COCC(C1O)N2CC1=C(C(=O)OC)[C@H](c2ccc(F)cc2Cl)N=C(c2nccs2)N1` (stereo partly drawn) [Example 138, Methyl (4R)-4-(2-chloro-4-fluoro-phenyl)-6-[[7-(2-ethoxy-2-oxo-ethyl)-6,7-dihydroxy-3-oxa-9-azabicyclo[3.3.1]nonan-9-yl]methyl]-2-thiazol-2-yl-1,4-dihydropyrimidine-5-carboxylate] here?
A: 58.2 nM

Q: With `CCOC(=O)C1=C(CN2C3COCC2CC(N)(C(=O)O)C3)NC(c2nccs2)=N[C@H]1c1cccc(F)c1F` (stereo partly drawn) [Example 140, 7-amino-9-[[(4R)-4-(2,3-difluorophenyl)-5-ethoxycarbonyl-2-thiazol-2-yl-1,4-dihydropyrimidin-6-yl]methyl]-3-oxa-9-azabicyclo[3.3.1]nonane-7-carboxylic acid] as the molecule, how does the EC50 read?
A: 103 nM

Q: With `CCOC(=O)C1=C(CN2C3COCC2CC(N)(C(=O)O)C3)NC(c2nccs2)=N[C@H]1c1ccc(F)cc1Br` (stereo partly drawn) [Example 141, 7-amino-9-[[(4R)-4-(2-bromo-4-fluoro-phenyl)-5-ethoxycarbonyl-2-thiazol-2-yl-1,4-dihydropyrimidin-6-yl]methyl]-3-oxa-9-azabicyclo[3.3.1]nonane-7-carboxylic acid] as the molecule, how does the EC50 read?
A: 271 nM

Q: For `COC(=O)C1=C(CN2CC3CCC(C2)O3)NC(c2nccs2)=N[C@H]1c1ccc(F)cc1Cl` [Example 142, Methyl (4R)-4-(2-chloro-4-fluoro-phenyl)-6-(8-oxa-3-azabicyclo[3.2.1]octan-3-ylmethyl)-2-thiazol-2-yl-1,4-dihydropyrimidine-5-carboxylate], which EC50 is on record?
A: 130 nM

Q: With `COC(=O)C1=C(CN2CC3CC2CC3(F)F)NC(c2nccs2)=N[C@H]1c1ccc(F)cc1Cl` (stereo partly drawn) [Example 143, Methyl (4R)-4-(2-chloro-4-fluoro-phenyl)-6-[(5,5-difluoro-2-azabicyclo[2.2.1]heptan-2-yl)methyl]-2-thiazol-2-yl-1,4-dihydropyrimidine-5-carboxylate] as the molecule, how does the EC50 read?
A: 41 nM

Q: `COC(=O)C1=C(CN2CC3CC2C(F)(F)C3)NC(c2nccs2)=N[C@H]1c1ccc(F)cc1Cl` (stereo partly drawn) [Example 144, Methyl (4R)-4-(2-chloro-4-fluoro-phenyl)-6-[(5,5-difluoro-3-azabicyclo[2.2.1]heptan-3-yl)methyl]-2-thiazol-2-yl-1,4-dihydropyrimidine-5-carboxylate] was tested. Which EC50 did it give?
A: 94 nM

Q: How did the EC50 turn out when `COC(=O)C1=C(CN2C3CC(F)(F)C2C[C@@H]3C(=O)O)NC(c2nccs2)=N[C@H]1c1ccc(F)cc1Cl` (stereo partly drawn) [Example 151, (5S)-7-[[(4R)-4-(2-chloro-4-fluoro-phenyl)-5-methoxycarbonyl-2-thiazol-2-yl-1,4-dihydropyrimidin-6-yl]methyl]-2,2-difluoro-7-azabicyclo[2.2.1]heptane-5-carboxylic acid] was run?
A: 29.5 nM
